We go through 4 compounds from ChEMBL document CHEMBL1126383, “P-3A and ()-desacetamido P-3A: demonstration and Study of their effective functional cleavage of duplex DNA” (Bioorg Med Chem Lett, 1992).

What all share (assay type): functional
The test system of test [1] is Nucleic Acid. In words: Relative efficiency of supercoiled phi X174 DNA cleavage was determined; 0.33-0.2.
Test [2] has as its system Nucleic Acid. In words: DNA cleavage selectivity selected within singly 5' -end labeled w794 DNA was determined; N - None.
Test [3] has as its system Nucleic Acid. The test is described as follows: Relative efficiency of supercoiled phi X174 DNA cleavage was determined.
The test system of test [4] is Nucleic Acid. The test is described as follows: Relative efficiency of supercoiled phi X174 DNA cleavage was determined; 4-10.
The test system of test [5] is Nucleic Acid. The test is described as follows: Relative efficiency of supercoiled phi X174 DNA cleavage was determined; 1.25-2.

Calls of active or inactive are those of the source. The rule behind the calls is not given here.

`C[C@H](NC(=O)C(Cc1c[nH]cn1)NC(=O)c1cc(N)nc(CNC[C@H](N)C(N)=O)n1)C(=O)O` (stereo partly specified) yielded a Relative efficiency in the test on Nucleic Acid [1] of 0.2. For the same compound, the Selectivity entry with Nucleic Acid [2] is “inactive”.
In the test on Nucleic Acid [3], `C[C@H](NC(=O)C(Cc1c[nH]cn1)NC(=O)c1cc(N)nc(C(CC(N)=O)NC[C@H](N)C(N)=O)n1)C(=O)O` (stereo partly specified) had a Relative efficiency of 1. For the same compound, in the test with Nucleic Acid [2], the Selectivity entry was “inactive”.
`Cc1c(N)nc([C@H](CC(N)=O)NC[C@H](N)C(N)=O)nc1C(=O)N[C@H](C(=O)N[C@H](C)[C@@H](O)[C@H](C)C(=O)N[C@H](C(=O)NCCc1nc(-c2nc(C(=O)NCCC[S+](C)C)cs2)cs1)[C@@H](C)O)[C@@H](O[C@@H]1O[C@@H](CO)[C@@H](O)[C@H](O)[C@@H]1O[C@H]1O[C@H](CO)[C@@H](O)[C@H](OC(N)=O)[C@@H]1O)c1c[nH]cn1`: in the test with Nucleic Acid [4], the Relative efficiency was determined as 4.
On to `Cc1c(N)nc(C(CC(N)=O)NC[C@H](N)C(N)=O)nc1C(=O)NC(C(=O)NC(C)C(O)[C@H](C)C(=O)NC(C(=O)NCCc1nc(-c2nc(C(=O)NCCC[S+](C)C)cs2)cs1)C(C)O)C(O)c1c[nH]cn1` (stereo partly specified), for which, in the test on Nucleic Acid [5], the Relative efficiency amounted to 1.25.
